According to patent US20130302909A1, “ASSESSMENT OF IGF-1 LEVELS IN HIV-INFECTED SUBJECTS AND USES THEREOF” (THERATECHNOLOGIES INC., priority 2011, published 2013):
*: point of attachment. Hexenoyl(3E) = CC/C=C/CC(=O)*

What was measured:
serum IGF-1 [1] = assay: Serum IGF-1 SDS in HIV patients treated with ThGRF, combined phase 3 studies, extension phase (LIPO-010 Extension/CTR-1012); type: in vivo, human; settings: for SDS >2 (%) / SDS >3 (%): HIV+ male normative ranges, percent of patients
Text: (§1) The IGF-1 normative ranges were derived from two phase 3 clinical studies of treatment with the GRF analog (hexenoyl trans-3)hGRF(1-44)NH2 (also referred to herein as “ThGRF” or “TH9507”). One phase 3 clinical study includes a main phase (6 months) and an extension phase (6 months) in one study (Lipo-010) and the second phase 3 clinical study includes two studies. CTR-1011 was the main phase (first 6 months) and CTR-1012 was the extension phase (last 6 months).
(§2) The IGF-1 data at baseline of all male patients from studies Lipo-010 and CTR-1011 were combined. Loge transformation was applied. […] The level of IGF-1 in the serum samples was determined using a blocking RIA assay. The IGF-1 blocking RIA assay is a competitive binding radioimmunoassay. It utilizes rabbit polyclonal antisera specific for IGF-1 as the primary antibody and radioiodinated recombinant human IGF-1 as tracer. Serum IGF-1 is first separated from binding proteins by acid ethanol extraction. The extracts (controls and unknown/test samples) and standard are incubated with primary antibody and tracer. Free IGF-1 present in the extracts competes with and displaces the tracer from primary antibody. A second antibody specific for rabbit immunoglobulin is added to precipitate the immunocomplexes, which are then separated from free reactants by centrifugation. The amount of radioactivity present in the precipitated immunocomplex is measured with a gamma counter and is inversely related to the concentration of IGF-1 present in the sample. The amount of tracer bound to the immunocomplexes formed in the calibrator samples (purified recombinant human IGF-1) is used to establish a dose response standard curve from which the IGF-1 concentration of controls and unknown samples are back calculated.
(§3) During clinical studies of the treatment of HIV subjects with ThGRF, initial analyses of IGF-I values of the HIV subjects was performed using a typical IGF-I determination, in which age- and gender-specific means and SD values were utilized for the calculation of the standard deviation scores (SDS). These values were derived from a relatively small cohort of healthy adults and were established assuming a Normal distribution (without any transformation of the measured IGF-1 values). As such, determination of the normative IGF-1 range was initially performed based on age- and gender-matched healthy (i.e., non-HIV) subjects, without any transformation of the measured raw IGF-1 values, referred to herein below as the “typical method” or “typical approach”.
(§4) The IGF-1 SDS were recalculated based on the means and standard deviations calculated from HIV patients (from all male patients in the above-noted clinical studies at baseline per age group as presented in Table III above, assuming a Normal distribution). The results are presented in Table IV for the main phase and the extension phase.
(§5) The calculations above (based on “healthy”, typical normative ranges or using normative ranges based on IGF-1 levels in HIV subjects) were all done assuming a Normal distribution of the IGF-1 levels. However, it was noted that the distribution of the IGF-1 levels at baseline for the patients in the phase 3 clinical studies is “Lognormal” rather than “Normal”. Thus, the means and standard deviations were recalculated using the natural log(loge or In) of IGF-1 and then calculated IGF-1 SDS using the lognormal scale, i.e. [(natural log IGF-1) minus (mean) divided by (standard deviation)]. The results using lognormal distributions are presented in Table V for the main phase and the extension phase. Importantly, the percent of patients at baseline and those treated with placebo is now much closer to expected and in addition, the % of ThGRF-treated patients being larger than +2 and +3 SDS using the lognormal distribution and the HIV population normative ranges are substantially lower than that seen using the uncorrected SDS calculators.

serum IGF-1 [2] = assay: Serum IGF-1 level and IGF-1 SDS in HIV patients treated with ThGRF, combined phase 3 studies, main phase (LIPO-010 Main/CTR-1011); type: in vivo, human; settings: Week 26; for SDS >2 (%) / SDS >3 (%): HIV+ male normative ranges
Text: as §1, §2, §3, §4, §5

[3] = Week 27, T-P group, Log-Normal distribution
[4] = Week 27, T-P group, Normal distribution
[5] = Week 27, T-T group, Log-Normal distribution
[6] = Week 27, T-T group, Normal distribution
[7] = Week 52, T-P group, Log-Normal distribution
[8] = Week 52, T-P group, Normal distribution
[9] = Week 52, T-T group, Log-Normal distribution
[10] = Week 52, T-T group, Normal distribution
[11] = Week 52, typical approach and healthy normative ranges
[12] = 2 mg/day, Log-Normal distribution, percent of patients
[13] = 2 mg/day, Normal distribution, percent of patients
[14] = 2 mg/day, typical approach, percent of patients

(hexenoyl trans-3)hGRF(1-44)NH2 ({Hexenoyl(3E)}-YADAIFTNSYRKVLGQLSARKLLQDIMSRQQGESNQERGARARL-NH2) [ThGRF]
SDS >2 (%) (serum IGF-1 [1]; [3]): 28.8%
SDS >3 (%) (serum IGF-1 [1]; [3]): 5.3%
SDS >2 (%) (serum IGF-1 [1]; [4]): 40.2%
SDS >3 (%) (serum IGF-1 [1]; [4]): 21.2%
SDS >2 (%) (serum IGF-1 [1]; [5]): 32.6%
SDS >3 (%) (serum IGF-1 [1]; [5]): 7.6%
SDS >2 (%) (serum IGF-1 [1]; [6]): 44.5%
SDS >3 (%) (serum IGF-1 [1]; [6]): 29.2%
SDS >2 (%) (serum IGF-1 [1]; [7]): 0.0%
SDS >3 (%) (serum IGF-1 [1]; [7]): 0.0%
SDS >2 (%) (serum IGF-1 [1]; [8]): 1.1%
SDS >3 (%) (serum IGF-1 [1]; [8]): 0.0%
SDS >2 (%) (serum IGF-1 [1]; [9]): 19.5%
SDS >3 (%) (serum IGF-1 [1]; [9]): 5.8%
SDS >2 (%) (serum IGF-1 [1]; [10]): 27.9%
SDS >3 (%) (serum IGF-1 [1]; [10]): 16.3%
ThGRF-treated patients larger than +2 SDS (serum IGF-1 [1]; [11]): 33.7%
ThGRF-treated patients larger than +3 SDS (serum IGF-1 [1]; [11]): 22.6%
SDS >2 (%) (serum IGF-1 [2]; [12]): 30.1%
SDS >3 (%) (serum IGF-1 [2]; [12]): 7.4%
SDS >2 (%) (serum IGF-1 [2]; [13]): 41.2%
SDS >3 (%) (serum IGF-1 [2]; [13]): 25.4%
IGF-1 SDS Mean (SD) (serum IGF-1 [2]; 2 mg/day, typical approach (healthy normative ranges, Normal distribution)): 2.4 (2.85)
SDS >+2 (%) (serum IGF-1 [2]; [14]): 47.4%
SDS >+3 (%) (serum IGF-1 [2]; [14]): 35.6%
IGF-1 level Mean (SD) (serum IGF-1 [2]; ThGRF 2 mg/day): 262 (123.6) ng/ml
